Experimental data taken from patent US8623846B2, “Diazeniumdiolate cyclohexyl derivatives” (Merck Sharp & Dohme Corp., priority 2010, dated 2014).

Tested on: Male beagle dogs
Test: canine telemetry protocol, blood pressure reduction efficacy
Format: in vivo
Details: change from baseline, 3 mg/kg oral gavage; for ΔPP (mm Hg) 1-6 h / ΔPP (mm Hg) 6-12 h / ΔPP (mm Hg) 12-18 h: pulse pressure; for ΔSBP (mm Hg) 1-6 h / ΔSBP (mm Hg) 6-12 h / ΔSBP (mm Hg) 12-18 h: systolic blood pressure
Protocol: Compounds of the invention were evaluated for blood pressure reduction efficacy using the following canine telemetry protocol described below.
Male beagle dogs (approximately 1-3 years old) with a body weight of between 10 and 16 kg were surgically implanted with DSI radiotelemetry devices (model: TL11M2-D70-PCT). Briefly, under an inhalant anesthesia, isoflurane/oxygen mixture (1-3.5%/to effect), the body of the telemetry device was positioned and secured intra-abdominally. Subsequently, the arterial catheter of the telemetry device was passed subcutaneously to the inguinal area and introduced into the femoral artery and advanced to the level of the descending aorta. The catheter was secured with 2-0 silk ligatures. The muscle and underlying fascia was closed over the catheter using absorbable suture and the skin was closed using non-absorbable suture. The animals were allowed a minimum recovery period of 2 weeks between surgery and the evaluation of test compounds.
Compound evaluation consisted of a 3 day paradigm at a 3 mg/kg dose. On the first day, no compounds were administered during a 24 hour period of baseline data collection. Blood pressure and heart rate data were collected continuously for one minute periods at 10 minute intervals. On the days of compound administration half the animals received test article with the other half receiving the vehicle used for compound formulation. All test materials were administered by oral gavage in a volume of 1 mL/kg. Data are expressed either as raw values (mm Hg or beats per minute) or as the change from baseline (average value for about 12 hours in low activity period prior to dosing). Change is SBP (systolic blood pressure) and PP (pulse pressure) over time is shown below: […]

Row | Structure (SMILES) | ΔPP (mm Hg) 1-6 h [mm Hg] | ΔPP (mm Hg) 6-12 h [mm Hg] | ΔPP (mm Hg) 12-18 h [mm Hg] | ΔSBP (mm Hg) 1-6 h [mm Hg] | ΔSBP (mm Hg) 6-12 h [mm Hg] | ΔSBP (mm Hg) 12-18 h [mm Hg]
1 | CCN(/[N+]([O-])=N/O[C@H]1CC[C@H](C(=O)O)CC1)C(C)(C)C [Example 2, Trans-4-({[(1Z)-2-tert-butyl-2-ethyl-1-oxido-1λ^5-diazan-1-ylidene]amino}oxy)-cyclohexanecarboxylic acid] | −9 | −9 | −7 | −14 | −10 | −9
2 | CCN(/[N+]([O-])=N/O[C@H]1CC[C@@H](C(=O)O)CC1)C(C)(C)C [Example 1, Cis-4-({[(1Z)-2-tert-butyl-2-ethyl-1-oxido-1λ^5-diazan-1-ylidene]amino}oxy)-cyclohexanecarboxylic acid] | −1 | −6 | −1 | −9 | −5 | −1
3 | CN(/[N+]([O-])=N/O[C@H]1CC[C@@H](C(=O)O)CC1)C(C)(C)C [Example 3, Cis-4-({[(1Z)-2-tert-butyl-2-methyl-1-oxido-1λ^5-diazan-1-ylidene]amino}oxy)-cyclohexanecarboxylic acid] | −7 | −8 | −5 | −8 | −10 | −5
4 | CN(/[N+]([O-])=N/O[C@H]1CC[C@H](C(=O)O)CC1)C(C)(C)C [Example 6, Trans-4-({[(1Z)-2-tert-butyl-2-methyl-1-oxido-1λ^5-diazan-1-ylidene]amino}oxy)-cyclohexanecarboxylic acid] | −12 | −4 | −2 | −18 | −4 | −2
5 | CCCCN(/[N+]([O-])=N/O[C@H]1CC[C@H](C(=O)O)CC1)C(C)(C)C [Example 8, Trans-4-({[(1Z)-2-butyl-2-tert-butyl-1-oxido-1λ^5-diazan-1-ylidene]amino}oxy)-cyclohexanecarboxylic acid] | −11 | −15 | −12 | −14 | −14 | −8
